Test results as given in patent publication US20040043920A1, “Compound for chelating a metal, radiopharmaceutical, manufacturing process therefor, and diagnostic kit” (priority 2000, published 2004).

Tests used:
[1] = Bioavailability (biodistribution) of radiolabelled Lys-Lys bis-dithiocarbamate in rats; type: in vivo; conditions: rat
Protocol: (§1) The molecule was radiolabelled as described in Example (29). The radiolabelled compound is then isolated by HPLC, evaporated and taken up in 0.9% saline medium. The bioavailability in rats gives the following results (see Table 1):
time 30 minutes and 60 minutes: 3 animals per point,
time 3 hours: 2 animals per point,
time 24 hours: 1 animal per point.
The results are expressed as a percentage of dose injected per organ.

[2] = HPLC analysis of rats' urine for unchanged complex; type: in vivo, rat; conditions: rats' urine collected 1 hour 30 minutes after injection
Protocol: as §1
The rats' urine was collected 1 hour 30 minutes after injection and analysed by HPLC. The result of this analysis is 87% of unchanged complex.

[3] = Brain distribution in the rat: crossing of the blood-brain barrier and striatum/cerebellum ratio; type: in vivo
Protocol: The model chosen is the rat. Depending on the compounds, we performed one or two sacrifice times (30 minutes or 1 hour).
At the times chosen, the brains were removed and the areas of interest were isolated and counted.
the crossing of the blood-brain barrier by the compound under consideration,
a striatum/cerebellum ratio.

Compound: NC(CCCCNC(=S)S)C(=O)NC(CCCCNC(=S)S)C(=O)O (centres unmarked) [Lys-Lys Bis-Dithiocarbamate]
- percentage of dose injected per organ, adrenals ([1]; 30 min): 0.02 percentage of dose injected per organ
- percentage of dose injected per organ, adrenals ([1]; 1 h): 0.01 percentage of dose injected per organ
- percentage of dose injected per organ, adrenals ([1]; 3 h): 0.01 percentage of dose injected per organ
- percentage of dose injected per organ, adrenals ([1]; 24 h): 0.00 percentage of dose injected per organ
- percentage of dose injected per organ, bladder ([1]; 30 min): 0.47 percentage of dose injected per organ
- percentage of dose injected per organ, bladder ([1]; 1 h): 0.32 percentage of dose injected per organ
- percentage of dose injected per organ, bladder ([1]; 3 h): 0.05 percentage of dose injected per organ
- percentage of dose injected per organ, bladder ([1]; 24 h): 0.01 percentage of dose injected per organ
- percentage of dose injected per organ, blood ([1]; 30 min): 0.67 percentage of dose injected per organ
- percentage of dose injected per organ, blood ([1]; 1 h): 0.34 percentage of dose injected per organ
- percentage of dose injected per organ, blood ([1]; 3 h): 0.20 percentage of dose injected per organ
- percentage of dose injected per organ, blood ([1]; 24 h): 0.11 percentage of dose injected per organ
- percentage of dose injected per organ, brain ([1]; 30 min): 0.03 percentage of dose injected per organ
- percentage of dose injected per organ, brain ([1]; 1 h): 0.01 percentage of dose injected per organ
- percentage of dose injected per organ, brain ([1]; 3 h): 0.01 percentage of dose injected per organ
- percentage of dose injected per organ, brain ([1]; 24 h): 0.01 percentage of dose injected per organ
- percentage of dose injected per organ, caecum ([1]; 30 min): 0.31 percentage of dose injected per organ
- percentage of dose injected per organ, caecum ([1]; 1 h): 0.18 percentage of dose injected per organ
- percentage of dose injected per organ, caecum ([1]; 3 h): 0.11 percentage of dose injected per organ
- percentage of dose injected per organ, caecum ([1]; 24 h): 0.66 percentage of dose injected per organ
- percentage of dose injected per organ, colon ([1]; 30 min): 0.46 percentage of dose injected per organ
- percentage of dose injected per organ, colon ([1]; 1 h): 0.23 percentage of dose injected per organ
- percentage of dose injected per organ, colon ([1]; 3 h): 0.19 percentage of dose injected per organ
- percentage of dose injected per organ, colon ([1]; 24 h): 0.87 percentage of dose injected per organ
- percentage of dose injected per organ, heart ([1]; 30 min): 0.21 percentage of dose injected per organ
- percentage of dose injected per organ, heart ([1]; 1 h): 0.10 percentage of dose injected per organ
- percentage of dose injected per organ, heart ([1]; 3 h): 0.06 percentage of dose injected per organ
- percentage of dose injected per organ, heart ([1]; 24 h): 0.03 percentage of dose injected per organ
- percentage of dose injected per organ, intestine ([1]; 30 min): 20.55 percentage of dose injected per organ
- percentage of dose injected per organ, intestine ([1]; 1 h): 32.92 percentage of dose injected per organ
- percentage of dose injected per organ, intestine ([1]; 3 h): 51.4 percentage of dose injected per organ
- percentage of dose injected per organ, intestine ([1]; 24 h): 0.49 percentage of dose injected per organ
- percentage of dose injected per organ, kidneys ([1]; 30 min): 4.55 percentage of dose injected per organ
- percentage of dose injected per organ, kidneys ([1]; 1 h): 4.18 percentage of dose injected per organ
- percentage of dose injected per organ, kidneys ([1]; 3 h): 3.87 percentage of dose injected per organ
- percentage of dose injected per organ, kidneys ([1]; 24 h): 2.65 percentage of dose injected per organ
- percentage of dose injected per organ, liver ([1]; 30 min): 14.38 percentage of dose injected per organ
- percentage of dose injected per organ, liver ([1]; 1 h): 9.08 percentage of dose injected per organ
- percentage of dose injected per organ, liver ([1]; 3 h): 3.84 percentage of dose injected per organ
- percentage of dose injected per organ, liver ([1]; 24 h): 1.33 percentage of dose injected per organ
- percentage of dose injected per organ, lungs ([1]; 30 min): 0.43 percentage of dose injected per organ
- percentage of dose injected per organ, lungs ([1]; 1 h): 0.28 percentage of dose injected per organ
- percentage of dose injected per organ, lungs ([1]; 3 h): 0.15 percentage of dose injected per organ
- percentage of dose injected per organ, lungs ([1]; 24 h): 0.08 percentage of dose injected per organ
- percentage of dose injected per organ, spleen ([1]; 30 min): 0.13 percentage of dose injected per organ
- percentage of dose injected per organ, spleen ([1]; 1 h): 0.09 percentage of dose injected per organ
- percentage of dose injected per organ, spleen ([1]; 3 h): 0.05 percentage of dose injected per organ
- percentage of dose injected per organ, spleen ([1]; 24 h): 0.04 percentage of dose injected per organ
- percentage of dose injected per organ, stomach ([1]; 30 min): 8.24 percentage of dose injected per organ
- percentage of dose injected per organ, stomach ([1]; 1 h): 3.36 percentage of dose injected per organ
- percentage of dose injected per organ, stomach ([1]; 3 h): 2.64 percentage of dose injected per organ
- percentage of dose injected per organ, stomach ([1]; 24 h): 0.08 percentage of dose injected per organ
- percentage of dose injected per organ, urine ([1]; 30 min): 14.39 percentage of dose injected per organ
- percentage of dose injected per organ, urine ([1]; 1 h): 14.70 percentage of dose injected per organ
- percentage of dose injected per organ, urine ([1]; 3 h): 0.44 percentage of dose injected per organ
- percentage of dose injected per organ, urine ([1]; 24 h): 0.05 percentage of dose injected per organ
- unchanged complex in urine [2]: 87%

Compound: Cc1ccc(C2CC3CCC(C2COC(=O)C2CCCCNC(=S)[S][Tc](#[N])[S]C(=S)NCCCCC(=O)N2)N3C)cc1 (centres unmarked) [Compound 52]
- Biodistribution: cerebellum ([3]; 30′): 30′: cerebellum: 0.114%
- Biodistribution: crossing of blood-brain barrier ([3]; 30′): barrier: 0.358%
- Biodistribution: striatum ([3]; 30′): striatum: 0.133%
- S/C (striatum/cerebellum ratio) ([3]; 30′): 1.17
- Biodistribution: cerebellum ([3]; 1 h): 1 h: cerebellum: 0.065%
- Biodistribution: crossing of blood-brain barrier ([3]; 1 h): barrier: 0.182%
- Biodistribution: striatum ([3]; 1 h): striatum: 0.064%
- S/C (striatum/cerebellum ratio) ([3]; 1 h): 0.98
